The results in this text go back to patent US10239849B2 (Merck Sharp & Dohme Corp., priority 2015, dated 2019).

In experiment [1] the target is T1, glutathione-S-transferase (GST) tagged LXRbeta LBD (ligand binding domain) (Homo sapiens, UniProt P55055).
T1 construct: purchased Invitrogen pv4658.pps
T1 sequence (P55055 222-460 limits assumed): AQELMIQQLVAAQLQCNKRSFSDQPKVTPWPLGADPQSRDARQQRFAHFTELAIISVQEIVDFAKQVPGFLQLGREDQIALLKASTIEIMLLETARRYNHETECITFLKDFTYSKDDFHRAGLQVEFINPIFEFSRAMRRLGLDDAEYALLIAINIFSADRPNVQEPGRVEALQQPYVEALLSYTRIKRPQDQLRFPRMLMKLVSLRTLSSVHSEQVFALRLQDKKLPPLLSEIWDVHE
The experiment in a line: LanthaScreen TR-FRET Liver X Receptor Coactivator Assay, LXR beta-LBD. The experiment is classed as biochemical. The conditions noted are these: for Emax: efficacy in relation to reference dual agonist T1317, read-out: LXR beta activity at max dose (%) (Emax); for EC50: potency (Inflection Point) of co-activator recruitment, TR-FRET, read-out: LXR beta IP. The method in brief: (§1)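 TR-FRET coactivator recruitment read-out: compounds first received either LBD, followed by a mix of terbium-labelled anti-GST antibody and fluorescein coactivator peptide. Signal measured by time-resolved FRET once plates had incubated at room temperature.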
A general note: In TR-FRET formats the signal depends on donor and acceptor labels being close together.

The target in experiment [2] is T2, glutathione-S-transferase (GST) tagged LXRalpha LBD (ligand binding domain) (Homo sapiens, UniProt Q13133).
T2 construct: purchased Invitrogen pv4655
T2 sequence (Q13133 209-447 limits assumed): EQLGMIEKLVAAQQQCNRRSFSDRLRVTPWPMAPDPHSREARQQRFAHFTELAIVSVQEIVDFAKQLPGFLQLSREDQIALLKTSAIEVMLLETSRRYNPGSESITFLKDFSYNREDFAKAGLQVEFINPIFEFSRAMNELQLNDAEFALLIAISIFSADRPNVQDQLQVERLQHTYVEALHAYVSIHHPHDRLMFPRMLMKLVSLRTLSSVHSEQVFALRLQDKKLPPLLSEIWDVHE
The experiment in a line: LanthaScreen TR-FRET Liver X Receptor Coactivator Assay, LXR alpha-LBD. The experiment is classed as biochemical. The conditions noted are these: for Emax: efficacy in relation to reference dual agonist T1317, read-out: LXR alpha activity at max dose (%) (Emax); for EC50 / LXR alpha IP (nM): potency (Inflection Point) of co-activator recruitment, TR-FRET; for EC50: read-out: LXR alpha IP. The method in brief: as §1

The Emax is the greatest response seen or fitted, relative to the assay's reference. As for `CC(C)(C)OC(=O)N1CCN(c2ncc(-c3ccc(C(=O)N4CCCC4)c(Cl)c3)cc2C#N)CC1` [Example 5-9, tert-butyl 4-{5-[3-chloro-4-(pyrrolidin-1-ylcarbonyl)phenyl]-3-cyanopyridin-2-yl}piperazine-1-carboxylate], the Emax is 71% in experiment [1] and 48% in experiment [2]. The EC50 was found to be 274 nM in experiment [1] and 14300 nM in experiment [2].
Regarding `CN(C)C(=O)c1ccc(-c2ccc(N3CCN(C(=O)[C@](O)(c4ccccc4)C(F)(F)F)CC3)cc2)cc1Cl` [Example 2-27, 3-chloro-N,N-dimethyl-4′-{4-[(2R)-3,3,3-trifluoro-2-hydroxy-2-phenylpropanoyl]piperazin-1-yl}biphenyl-4-carboxamide], in experiment [1], the Emax stood at 80% and the EC50 amounted to 226 nM. For the same compound, in experiment [2], the Emax turned out to be 14% and the “LXR alpha IP (nM)” value is reported as “No IP”.
For the compound `CN(C)C(=O)c1ccc(-c2cnc(N3CCN(C(=O)C45CC(C4)C5)CC3)c(C#N)c2)cc1Cl` [Example 2-4, 4-{6-[4-(bicyclo[1.1.1]pent-1-ylcarbonyl)piperazin-1-yl]-5-cyanopyridin-3-yl}-2-chloro-N,N-dimethylbenzamide], the figures for the Emax in experiment [1] and in experiment [2] were 79% and 44%, respectively. Moreover, the figures for the EC50 in experiment [1] and in experiment [2] were 95 nM and 12800 nM, respectively.
With `CN(CC(O)c1ccccc1)C(=O)c1ccc(-c2cnc(N3CCN(C(=O)OC(C)(C)C)CC3)c(C#N)c2)cc1Cl` (stereo not shown) [Example 5-29, tert-butyl 4-(5-{3-chloro-4-[(2-hydroxy-2-phenylethyl)(methyl)carbamoyl]phenyl}-3-cyanopyridin-2-yl)piperazine-1-carboxylate], in experiment [1], the Emax is 75% and the EC50 came to 1170 nM. Moreover, in experiment [2], the Emax was 30% and the EC50 was determined as 6580 nM.
As for `CN(C)C(=O)c1ccc(-c2ccc(N3CCN(C(=O)c4c(F)cccc4F)CC3)cc2)cc1Cl` [Example 4-16, 3-chloro-4′-{4-[(2,6-difluorophenyl)carbonyl]piperazin-1-yl}-N,N-dimethylbiphenyl-4-carboxamide], in experiment [1], the Emax was determined as 77% and the EC50 stood at 4160 nM. Moreover, in experiment [2], the Emax was determined as 19% and the “LXR alpha IP (nM)” value is recorded as “No IP”.
For `CC(C)COC(=O)N1CCN(c2ncc(-c3ccc(C(=O)N(C)C)c(Cl)c3)cc2C#N)CC1` [Example 3-2, 2-methylpropyl 4-{5-[3-chloro-4-(dimethylcarbamoyl)phenyl]-3-cyanopyridin-2-yl}piperazine-1-carboxylate], in experiment [1], the Emax stood at 41% and the EC50 worked out at 1560 nM. In experiment [2], the Emax was 19% and the “LXR alpha IP (nM)” value is given as “No IP”.
Turning to `CN(C)C(=O)c1ccc(-c2cnc(N3CCN(C(=O)OC(C)(C)C)CC3)c(Cl)c2)cc1Cl` [Example 9-1, tert-butyl 4-(3-chloro-5-(3-chloro-4-(dimethylcarbamoyl)phenyl)pyridin-2-yl)piperazine-1-carboxylate], in experiment [1], the maximal effect (Emax) stood at 61% and the EC50 turned out to be 55 nM. In addition, in experiment [2], the Emax stood at 48% and the EC50 stood at 1350 nM.
On to `CN(C)C(=O)c1ccc(-c2cnc(N3CC4CC3CN4C(=O)OC(C)(C)C)c(C#N)c2)cc1Cl` (stereo not shown) [Example 8-5, tert-butyl 5-{5-[3-chloro-4-(dimethylcarbamoyl)phenyl]-3-cyanopyridin-2-yl}-2,5-diazabicyclo[2.2.1]heptane-2-carboxylate], for which the maximum response (Emax) was found to be 53% in experiment [1] and 37% in experiment [2]. Besides, the EC50 in experiment [1] came out at 252 nM; in experiment [2], 16800 nM.
On to `CCC(O)(C(=O)N1CCN(c2ncc(-c3ccc(C(=O)N(C)C)c(Cl)c3)cc2C#N)CC1)C(F)(F)F` (stereo not shown) [Example 2-20, 2-chloro-4-(5-cyano-6-{4-[2-hydroxy-2-(trifluoromethyl)butanoyl]piperazin-1-yl}pyridin-3-yl)-N,N-dimethylbenzamide], for which the results for the Emax in experiment [1] and in experiment [2] were 102% and 60%, respectively. Besides, the figures for the EC50 in experiment [1] and in experiment [2] were 138 nM and 6070 nM, respectively.
In the case of `CC(C)(C)OC(=O)N1CCN(c2ncc(-c3ccc(C(=O)N(CCO)Cc4ccccc4)c(Cl)c3)cc2C#N)CC1` [Example 5-30, tert-butyl 4-(5-{4-[benzyl(2-hydroxyethyl)carbamoyl]-3-chlorophenyl}-3-cyanopyridin-2-yl)piperazine-1-carboxylate], in experiment [1], the Emax turned out to be 73% and the EC50 was 1190 nM. In experiment [2], the Emax came out at 57% and the EC50 is 10000 nM.
`CN(C)C(=O)c1ccc(-c2cnc(N3C4CCC3C3CCC4N3C(=O)OC(C)(C)C)c(C#N)c2)cc1Cl` [Example 8-11, tert-butyl 10-{5-[3-chloro-4-(dimethylcarbamoyl)phenyl]-3-cyanopyridin-2-yl}-9,10-diazatricyclo[4.2.1.1~2,5~]decane-9-carboxylate]: in experiment [1], the Emax stood at 57% and the EC50 amounted to 1050 nM. For the same compound, in experiment [2], the Emax was determined as 41% and the EC50 worked out at 10900 nM.
As to `CN(CC#N)C(=O)c1ccc(-c2cnc(N3CCN(C(=O)OC(C)(C)C)CC3)c(C#N)c2)cc1Cl` [Example 5-8, tert-butyl 4-(5-{3-chloro-4-[(cyanomethyl) (methyl)carbamoyl]phenyl}-3-cyanopyridin-2-yl)piperazine-1-carboxylate], in experiment [1], the Emax was 91% and the EC50 came out at 170 nM. Besides, in experiment [2], the Emax amounted to 58% and the EC50 was found to be 14900 nM.
The like results for `CN(C)C(=O)c1ccc(-c2cnc(N3CCN(C(=O)C(O)(C4CCCCC4)C(F)(F)F)CC3)c(C#N)c2)cc1Cl` (stereo not shown) [Example 2-33, 2-chloro-4-{5-cyano-6-[4-(2-cyclohexyl-3,3,3-trifluoro-2-hydroxypropanoyl)piperazin-1-yl]pyridin-3-yl}-N,N-dimethylbenzamide] were, in that order, 115%, 162 nM, 27% and 3290 nM.
Consider `CN(C)C(=O)c1ccc(-c2ccc(N3CCN(C(=O)c4c(F)cccc4C(F)(F)F)CC3)c(Cl)c2)cc1Cl` [Example 4-7, 3,3′-dichloro-4′-(4-{[2-fluoro-6-(trifluoromethyl)phenyl]carbonyl}piperazin-1-yl)-N,N-dimethylbiphenyl-4-carboxamide], for which, in experiment [1], the Emax was 83% and the EC50 was 106 nM. Further, in experiment [2], the Emax is 64% and the EC50 was 1280 nM.
With `CC(C)(C)OC(=O)N1CCN(c2ncc(-c3ccc(C(=O)N(CCO)CCO)c(Cl)c3)cc2C#N)CC1` [Example 5-19, tert-butyl 4-(5-{4-[bis(2-hydroxyethyl)carbamoyl]-3-chlorophenyl}-3-cyanopyridin-2-yl)piperazine-1-carboxylate], the Emax in experiment [1] is 93%; in experiment [2] it was 68%. Also, the EC50 was 102 nM in experiment [1] and 2980 nM in experiment [2].
With `CN(C)C(=O)c1ccc(-c2cnc(N3CCN(S(=O)(=O)c4ccccc4)CC3)c(C#N)c2)cc1Cl` [Example 1-16, 2-chloro-4-{5-cyano-6-[4-(phenylsulfonyl)piperazin-1-yl]pyridin-3-yl}-N,N-dimethylbenzamide], in experiment [1], the Emax came to 69% and the EC50 is 144 nM. For the same compound, in experiment [2], the Emax was found to be 63% and the EC50 came out at 50500 nM.
